# Source: the supplement of paper PMC10290057
# Where a name gives a salt, the structure may show the parent alone.
# What was measured:
# HCT116 [1] = assay: AC50 cell viability (CellTiter-Glo); higher = less potent; details: 48 h
# HCT116 [2] = assay: efficacy (fitted maximal change in viability relative to DMSO control); higher = less cytotoxic (negative = loss of viability); details: 48 h
# 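Wherever AC50 cell viability (CellTiter-Glo) is given: HCT116 colorectal carcinoma cells screened at five concentrations per compound, luminescent viability scaled between DMSO wells and empty wells on each plate, curves fitted per compound.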
# 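Wherever efficacy (fitted maximal change in viability relative to DMSO control) is given: Luminescence-based viability readout, five doses per compound, normalized against on-plate DMSO and empty-well controls, followed by dose-response curve fitting for every drug.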
Compound,AC50 cell viability (HCT116 [1]),efficacy (HCT116 [2])
Nc1nc(Nc2ccc([S+](N)(=O)[O-])cc2)nn1C(=O)c1c(F)cccc1F,1.66 µM,-65.7%
CNC(=O)c1cc(Oc2ccc(NC(=O)Nc3cc(C(C)(C)C)nn3-c3ccc4ncccc4c3)c(F)c2)ccn1 [DCC-2036],11.8 µM,-76%
Nc1nccn2c1c(-c1cc3cccc(Cl)c3[nH]1)nc2[C@H]1CC[C@H](C(=O)O)CC1 [OXA-01],9.34 µM,-65.8%
C[C@@H]1O[C@@H](O[C@H]2C[C@@H](O)[C@]3(CO)[C@H]4[C@H](O)C[C@]5(C)[C@H](CC[C@]5(O)[C@@H]4CC[C@]3(O)C2)C/6=C/C(=O)OC6)[C@H](O)[C@H](O)[C@H]1O [Strophantine octahydrate],0.0263 µM,-75.8%
Nc1cccc([S+](=O)([O-])N2CCCN([S+](=O)([O-])c3ccc4c(c3)OCCO4)CC2)c1 [DASA-58],14.8 µM,-59.9%
CC(=O)[C@]1(O)Cc2c(O)c3c(c(O)c2[C@@H](O[C@H]2C[C@H](N)[C@H](O)[C@H](C)O2)C1)C(=O)c1ccccc1C3=O [Idarubicin hydrochloride],0.661 µM,-83%
O=[N+]([O-])c1ccc(Nc2ccccc2-c2ccccc2)c2nonc12,16.6 µM,-90.7%
CNCc1ccc(C)c(NC(=O)c2ccc(Nc3nc(-c4ccccc4)c4ccccc4n3)cc2)c1,18.6 µM,-94.8%
COC(=O)Nc1ccc(-c2nc(N3CCOCC3)c3cnn(C4CCN(Cc5cccnc5)CC4)c3n2)cc1 [WYE-687],13.2 µM,-135%
Cc1ccc([S+](=O)([O-])Nc2cc(-c3ccc(C#N)s3)ccc2C)cc1,0.0372 µM,-59.9%
O=C1N\N=C(\CC2=CC=CC(=C2)C(=O)N3CCN(CC3)C4=NC=CC=C4C#N)C5=CC=CC=C15 [AZ-9482],5.25 µM,-54.2%
O=C1\C=C(OC2=C1SC=C2C3=CC=C4OCCOC4=C3)\N5CCOCC5 [SF-2523],3.72 µM,-69.9%
CN(C)C1=C(Br)C=C(C=C1)C\2NC3=C(\C4=C2C(=O)CC(C)(C)C4)C5=CC=CC=C5C=C3 (stereo not drawn) [GLS-968],9.34 µM,-31.2%
CN(C)Cc1cccc(N/C(=C2\C(=O)Nc3cc(C(=O)N(C)C)ccc32)c2ccccc2)c1,13.2 µM,-69.8%
FC(F)(F)c1ccc(Nc2nc3cc(Oc4ccnc(-c5ncc(C(F)(F)F)[nH]5)c4)ccc3[nH]2)cc1 [RAF-265 derivative],14.8 µM,-84.8%
"CCCCC(C)(C)[C@H](O)/C=C/[C@H]1[C@H](O)CC(=O)[C@@H]1C/C=C\CCCC(=O)O [16,16-dimethyl PGE2]",20.9 µM,-64.7%
CNC(=O)c1cc(Oc2ccc3nc(N[C@@H]4CCCC[C@H]4O)sc3c2)ccn1 [BLZ-945],20.9 µM,-41.8%
CC(O)c1cc(C(=O)N[C@@H](C)Cn2ccc(-c3ccc(C#N)c(Cl)c3)n2)n[nH]1 (stereo partly drawn) [Darolutamide (ODM-201)],16.6 µM,-38.4%
CCN(CC)CCNC(=O)c1c(C)[nH]c(/C=C2/C(=O)Nc3ccc(-c4csc(-c5ccccc5)n4)cc32)c1C [Amcasertib],20.9 µM,-99.9%
Cc1ccc([S+](=O)([O-])Nc2cc(C(F)(F)F)ccc2C(=O)Nc2nc(-c3ccccc3)cs2)cc1 [ML-364],4.17 µM,-87%
C[C@@H]1C[C@H]2[C@@H]3CC\C4=C\C(=O)\C=C/[C@]4(C)[C@@]3(Cl)[C@@H](O)C[C@]2(C)[C@@]1(OC(=O)C5=CC=CO5)C(=O)CCl [Mometasone furoate],20.9 µM,-78.7%
COc1cc2c(Nc3ccc(Cl)c(Cl)c3F)ncnc2cc1OC[C@@H]1C[C@@H]2CN(C)C[C@@H]2C1 [XL647],11.8 µM,-113%
Oc1c(Cl)cc(Cl)c2cccnc12 [Chloroxine],13.2 µM,-86.7%
C/C=C/C[C@@H](C)C(=O)[C@H]1C(=O)N[C@@H](C(C)C)C(=O)N(C)CC(=O)N(C)[C@@H](CC(C)C)C(=O)N[C@@H](C(C)C)C(=O)N(C)[C@@H](CC(C)C)C(=O)N[C@@H](C)C(=O)N[C@H](C)C(=O)N(C)[C@@H](CC(C)C)C(=O)N(C)[C@@H](CC(C)C)C(=O)N(C)[C@@H](C(C)C)C(=O)N1C [Valspodar],8.11 µM,-53.6%
c1ccc2c(Oc3nc(Nc4ccc(N5CCOCC5)cc4)c4ncn(C5CCCCC5)c4n3)cccc2c1 [Purmorphamine],11.8 µM,-34.8%
Cc1c(C(=O)N2CCOc3ccc(-c4ccc(N)nc4)cc3C2)ccc([S+](C)(=O)[O-])c1F [XL-388],10.5 µM,-65.5%
Cc1cc(O)c(-c2ccc([C@@H](C)CN(C)C)cc2)c2c1[nH]c(=O)c1sccc12 [OTS964],0.0295 µM,-63.1%

Compound,AC50 cell viability (HCT116 [1]),efficacy (HCT116 [2])
CCNCCc1ccc(CN(CC)c2cc(OC)ccc2[C@@H]2CCc3cc(O)ccc3C2)cc1 [Elacestrant],7.42 µM,-96.5%
COc1cc2c(Oc3ccc(NC(=O)C4(C(=O)Nc5ccc(F)cc5)CC4)cc3F)ccnc2cc1OCCCN1CCOCC1 [Foretinib],5.9 µM,-101%
C/C=C(\C)C(=O)N[C@@H](c1ccccc1)[C@@H](O)C(=O)O[C@H]1C[C@@]2(O)[C@@H](OC(=O)c3ccccc3)[C@@H]3[C@]4(OC(C)=O)CO[C@@H]4C[C@H](O)[C@@]3(C)C(=O)[C@H](OC(C)=O)C(=C1C)C2(C)C [Cephalomannine],0.0263 µM,-63.5%
C[C@@H]\1COC(=N1)\NC2=CC3=C(C=C2)N=CN=C3NC4=CC(=C(OCC5=NC=CS5)C=C4)Cl [Varlitinib tosylate],16.6 µM,-87.5%
Cc1cc(C(=O)Nc2cc(Oc3ccc4nc(NC(=O)C5CC5)cn4n3)ccc2C)n(C)n1 [TAK-593],14.8 µM,-56.7%
CN1CCN(CC1)C2=CC3=C([NH]C(=N3)C/4=C(\N)C5=C(F)C=CC=C5NC4=O)C=C2 [Dovitinib],8.33 µM,-106%
c1ccc2c(-c3cnn4cc(-c5ccc(OCCN6CCOCC6)cc5)cnc34)ccnc2c1,6.45 µM,-84.3%
Nc1n[nH]c2nnc(-c3c(-c4ccccc4)nn4ccccc34)cc12,18.6 µM,-41.3%
Cn1cnc2c(F)c(Nc3ccc(Br)cc3F)c(C(=O)NOCCO)cc21 [ARRY-162],0.468 µM,-60.8%
CC[S+](=O)([O-])N1CC(CC#N)(n2cc(-c3ncnc4[nH]ccc34)cn2)C1 [Baricitinib],29.5 µM,-91.6%
COc1cc(F)c(F)c(Nc2ccc(I)cc2F)c1N[S+](=O)([O-])C1(C[C@H](O)CO)CC1 [Refametinib],2.63 µM,-84.3%
Cn1cc(-c2ccc3ncc(Cc4ccc5ncccc5c4)n3n2)cn1 [NVP-BVU-972],18.6 µM,-40.8%
Clc1ccc(C(Cn2ccnc2)OCc2ccc(Sc3ccccc3)cc2)c(Cl)c1 (stereo not drawn) [Fenticonazole nitrate],20.9 µM,-90.5%
C[C@@H](Oc1cc(-n2cnc3ccc(CN4CCN(C)CC4)cc32)sc1C(N)=O)c1ccccc1C(F)(F)F,0.0468 µM,-57.6%
Cc1cc(OCCCc2c3n(c4c(-c5c(C)nn(C)c5C)c(Cl)ccc24)[C@H](C)CN(c2cn(C)c4ccc(C(=O)O)cc24)C3=O)cc(C)c1Cl,16.6 µM,-93.6%
COc1cc(Nc2cnc(C#N)c(O[C@H](C)CN(C)C)n2)ncc1-c1cnn(C)c1,11.8 µM,-121%
COc1ccc([S+](=O)([O-])Nc2cc(-c3c(O)ccc4ccccc34)c(O)c3ccccc23)cc1 [C-188-9],26.3 µM,-95.1%
CO[C@@H](C)Cn1c(=O)n(C)c2cnc3ccc(-c4cncc(C(C)(C)O)c4)cc3c21,1.05 µM,-82.3%
CCCCNc1ncc2c(-c3ccc(CN4CCN(C)CC4)cc3)cn([C@H]3CC[C@H](O)CC3)c2n1 [UNC2025 (hydrochloride)],1.66 µM,-93.7%
NC1=NC(=C(C#N)C(=N1)N)N[C@@H](C2CC2)\C3=N\C4=C(C(=CC=C4F)Cl)C(=O)N3C5=CC=CN=C5 [GS-9901],18.6 µM,-71%
C=C1C(=O)[C@@]23C(CC[C@@H]1[C@H]2O)[C@@]12CO[C@]3(O)[C@@H](O)[C@@H]1C(C)(C)CC[C@@H]2O (stereo partly drawn) [Oridonin],13.2 µM,-98.8%
CNC(=O)c1cc(COc2nnc(Nc3ccc(Cl)cc3)c3ccoc23)ccn1 [Telatinib],20.9 µM,-70.3%
NCC(=O)Nc1ccc(-n2nc(C(F)(F)F)cc2-c2ccc3c(ccc4ccccc43)c2)cc1,13.2 µM,-124%
COc1cc(NCc2ccc3nc(N)nc(N)c3c2C)cc(OC)c1OC [Trimetrexate],1.05 µM,-77.8%
COc1cc2c(Nc3ccc(Br)cc3F)ncnc2cc1OCC1CCN(C)CC1 [Vandetanib],14.8 µM,-108%
COC[C@H]1OC(=O)C2=COC3=C2[C@@]1(C)\C4=C(C5CCC(=O)[C@@]5(C)C[C@H]4OC(C)=O)/C3=O (stereo partly drawn) [17_-hydroxy Wortmannin],0.468 µM,-43.9%
C/C(=N\NC(=O)c1cccc([S+](=O)([O-])N2CCOCC2)c1)c1cc(Cl)ccc1O [SP2509],1.86 µM,-69.5%
